A value given as a limit tells only on which side of the number the result lay.

Assay [1] addresses T1, Serine/threonine-protein kinase 17A (Homo sapiens, UniProt Q9UEE5).
T1 sequence (Q9UEE5 whole entry): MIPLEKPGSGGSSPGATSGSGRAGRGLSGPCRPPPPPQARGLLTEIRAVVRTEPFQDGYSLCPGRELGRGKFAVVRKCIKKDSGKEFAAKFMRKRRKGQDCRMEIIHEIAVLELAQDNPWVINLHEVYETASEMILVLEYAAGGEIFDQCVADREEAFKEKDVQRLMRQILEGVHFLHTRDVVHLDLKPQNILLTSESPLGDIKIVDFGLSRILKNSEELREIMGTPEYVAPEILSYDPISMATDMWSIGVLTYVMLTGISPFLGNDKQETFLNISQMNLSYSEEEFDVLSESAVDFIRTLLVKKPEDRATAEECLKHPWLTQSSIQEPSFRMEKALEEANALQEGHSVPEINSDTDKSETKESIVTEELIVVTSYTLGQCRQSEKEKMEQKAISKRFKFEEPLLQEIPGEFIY

The target of assay [2] is Mitogen-activated protein kinase kinase kinase 20 (Homo sapiens, UniProt Q9NYL2).
In assay [3] the target is T2, Mitogen-activated protein kinase 15 (Homo sapiens, UniProt Q8TD08).
T2 sequence (Q8TD08 whole entry): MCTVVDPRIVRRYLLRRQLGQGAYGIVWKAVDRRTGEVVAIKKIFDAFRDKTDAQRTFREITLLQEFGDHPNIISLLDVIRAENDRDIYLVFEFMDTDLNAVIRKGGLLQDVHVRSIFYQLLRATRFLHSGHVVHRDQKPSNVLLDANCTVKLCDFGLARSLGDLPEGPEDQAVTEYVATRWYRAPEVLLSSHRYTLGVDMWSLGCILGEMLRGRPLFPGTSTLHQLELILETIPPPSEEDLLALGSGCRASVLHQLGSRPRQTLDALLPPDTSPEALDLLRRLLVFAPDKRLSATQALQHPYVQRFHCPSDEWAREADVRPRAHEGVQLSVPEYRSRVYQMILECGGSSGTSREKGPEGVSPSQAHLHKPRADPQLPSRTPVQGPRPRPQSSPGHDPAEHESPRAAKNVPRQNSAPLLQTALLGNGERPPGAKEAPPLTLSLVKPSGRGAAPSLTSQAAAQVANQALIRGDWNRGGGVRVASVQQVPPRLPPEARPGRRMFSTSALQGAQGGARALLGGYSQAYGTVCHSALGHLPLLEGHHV

Assay [4] deals with T3, Ephrin type-A receptor 8 (Homo sapiens, UniProt P29322).
T3 sequence (P29322 whole entry): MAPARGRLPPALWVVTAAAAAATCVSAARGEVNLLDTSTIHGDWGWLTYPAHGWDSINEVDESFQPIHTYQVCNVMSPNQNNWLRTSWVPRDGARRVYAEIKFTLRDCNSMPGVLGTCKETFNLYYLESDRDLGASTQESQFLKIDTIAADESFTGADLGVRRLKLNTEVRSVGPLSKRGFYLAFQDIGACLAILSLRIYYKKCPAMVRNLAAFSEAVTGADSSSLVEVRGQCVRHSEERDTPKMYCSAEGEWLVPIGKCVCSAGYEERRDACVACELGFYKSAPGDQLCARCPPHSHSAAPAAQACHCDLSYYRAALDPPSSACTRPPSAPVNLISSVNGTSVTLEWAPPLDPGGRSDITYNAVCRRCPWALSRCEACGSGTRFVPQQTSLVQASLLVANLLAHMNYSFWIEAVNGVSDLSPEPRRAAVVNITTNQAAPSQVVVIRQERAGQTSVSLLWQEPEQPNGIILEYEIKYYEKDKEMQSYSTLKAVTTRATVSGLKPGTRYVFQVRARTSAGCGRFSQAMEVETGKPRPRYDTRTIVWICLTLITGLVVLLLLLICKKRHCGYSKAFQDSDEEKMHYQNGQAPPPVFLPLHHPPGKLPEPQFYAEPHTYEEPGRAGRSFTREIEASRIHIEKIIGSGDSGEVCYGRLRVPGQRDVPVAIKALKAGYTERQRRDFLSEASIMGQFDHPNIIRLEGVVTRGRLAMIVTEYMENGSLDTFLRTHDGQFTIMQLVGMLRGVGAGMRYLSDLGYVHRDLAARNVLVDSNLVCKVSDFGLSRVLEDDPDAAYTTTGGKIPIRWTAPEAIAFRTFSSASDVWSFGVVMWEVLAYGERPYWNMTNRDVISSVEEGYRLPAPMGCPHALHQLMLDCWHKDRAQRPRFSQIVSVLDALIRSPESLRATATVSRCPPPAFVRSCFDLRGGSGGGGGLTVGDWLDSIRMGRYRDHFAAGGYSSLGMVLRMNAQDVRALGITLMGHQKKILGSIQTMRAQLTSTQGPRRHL

Assay [5] has as its target T4, Activin receptor type-1B (Homo sapiens, UniProt P36896).
T4 sequence (P36896 whole entry): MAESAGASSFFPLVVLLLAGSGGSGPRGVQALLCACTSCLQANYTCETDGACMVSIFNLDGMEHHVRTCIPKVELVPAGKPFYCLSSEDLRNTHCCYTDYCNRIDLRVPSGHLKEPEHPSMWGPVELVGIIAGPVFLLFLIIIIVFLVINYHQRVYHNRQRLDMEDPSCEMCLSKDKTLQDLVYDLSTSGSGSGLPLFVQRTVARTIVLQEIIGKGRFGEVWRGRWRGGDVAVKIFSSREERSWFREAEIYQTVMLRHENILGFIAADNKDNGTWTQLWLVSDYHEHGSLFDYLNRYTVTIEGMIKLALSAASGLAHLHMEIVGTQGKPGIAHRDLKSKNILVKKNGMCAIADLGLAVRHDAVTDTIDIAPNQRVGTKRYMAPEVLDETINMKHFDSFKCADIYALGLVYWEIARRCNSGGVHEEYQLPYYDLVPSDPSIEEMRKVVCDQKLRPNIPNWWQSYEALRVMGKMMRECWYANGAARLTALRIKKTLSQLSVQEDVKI

The target in assay [6] is Bone morphogenetic protein receptor type-1A (Homo sapiens, UniProt P36894).
Assay [7] deals with Proto-oncogene tyrosine-protein kinase Src (Homo sapiens, UniProt P12931).
Assay [8] addresses Serine/threonine-protein kinase MRCK gamma (Homo sapiens, UniProt Q6DT37).
Assay [9] concerns the target Serine/threonine-protein kinase pim-3 (Homo sapiens, UniProt Q86V86).
The target of assay [10] is Serine/threonine-protein kinase PAK 1 (Homo sapiens, UniProt Q13153).
The target of assay [11] is Serine/threonine-protein kinase PAK 6 (Homo sapiens, UniProt Q9NQU5).
In assay [12] the target is Tyrosine-protein kinase Lyn (Homo sapiens, UniProt P07948).

`COCC(=O)NC/C=C/c1ccc2ncnc(Nc3ccc(Oc4ccc(C)nc4)c(C)c3)c2c1` [CP-724714]: the Kd in assay [1], in assay [2], in assay [3], in assay [4], in [5] and in assay [6] was greater than 10 µM each time. The Kd in assay [7], in [8], in [9], in assay [10], in [11] and in [12] was greater than 10 µM each time.
For the compound `Nc1nc(Nc2ccc(S(N)(=O)=O)cc2)nn1C(=O)c1c(F)cccc1F` [JNJ-7706621], the Kd in assay [2], in assay [4], in assay [5], in [6], in [7] and in [8] was greater than 10 µM throughout. Further, the Kd in assay [9], in [10] and in assay [12] was greater than 10 µM in each case.
Take `CCOc1cc2ncc(C#N)c(Nc3ccc(F)c(Cl)c3)c2cc1NC(=O)/C=C/CN(C)C` [PELITINIB]: the Kd in assay [2] was 1.2 µM; in assay [3], greater than 10 µM; in assay [5], greater than 10 µM; in assay [6], greater than 10 µM; in assay [8], greater than 10 µM; in assay [9] it was greater than 10 µM. The values for the Kd in [11] and in assay [12] were greater than 10 µM and 0.72 µM, respectively.
`Oc1ccc(-c2nc(-c3ccncc3)c(-c3ccc(F)cc3)[nH]2)cc1` [SB-202190]: the equilibrium dissociation constant (Kd) in assay [1] was greater than 10 µM; in [2] it was greater than 10 µM; in assay [3], greater than 10 µM; in assay [4], greater than 10 µM; in assay [5], 0.95 µM; in [6], greater than 10 µM. Also, the Kd in assay [7] was greater than 10 µM; in [8], 0.64 µM; in assay [9], greater than 10 µM; in assay [10], greater than 10 µM; in assay [11], greater than 10 µM; in assay [12], greater than 10 µM.
`NC(=O)c1ccc(-c2nc(-c3ccc4c(c3)OCO4)c(-c3ccccn3)[nH]2)cc1` [SB-431542]: the Kd in assay [1], in [2], in assay [3], in assay [4], in assay [6] and in assay [7] was greater than 10 µM throughout. The Kd in assay [8], in [9], in assay [10], in assay [11] and in assay [12] was greater than 10 µM throughout.

A word on the Kd: it is the constant that tells how readily two partners part at equilibrium. Read a low Kd as tighter binding.

The values above are taken from ChEMBL document CHEMBL1150977, “A quantitative analysis of kinase inhibitor selectivity” (Nat Biotechnol, 2008).
